The subject of this assay is all tested strains of Candida. The assay is described as follows: Antifungal screening, all strains. Type of assay: cell-based. The text has this: The examined compounds 3a–3j were screened in vitro for antibacterial and antifungal activities using the broth microdilution method according to European Committee on Antimicrobial Susceptibility Testing (EUCAST) (EUCAST [2003]) and Clinical and Laboratory Standards Institute guidelines (CLSI [2012]) against reference strains of microorganisms from American Type Culture Collection (ATCC), including fungi belonging to yeasts (Candida albicans ATCC 2091, Candida albicans ATCC 10231, Candida parapsilosis ATCC 22019 and Candida krusei ATCC 14243).
In the study of antifungal activity of the compounds 3a–3j, 15 clinical strains of different species of yeasts from Candida species, namely C. albicans, C. dubliniensis C. famata, C. inconspicua, C. krusei, C. tropicalis, C. glabrata, C. lambica, C. kefyr, C. lusitaniae, C. parapsilosis, C. guilliermondii, C. lusitaniae, C. pulcherrima and C. sake were also used. […] After incubation, the MIC was assessed spectrophotometric as the lowest concentration of the samples showing complete fungal growth inhibition. […] MFC was determined by removing the culture using for MIC determinations from each well and spotting onto appropriate agar medium. […] The lowest compounds concentration with no visible growth observed was assessed as a fungicidal concentration. […]

As for `FC(F)(F)c1ccc(-c2csc(N/N=C/C3CC3)n2)cc1` [Compound 3e, (E)-2-(2-(Cyclopropylmethylene)hydrazinyl)-4-(4-(trifluoromethyl)phenyl)thiazole], the antifungal activity result is “inactive”.

Source of the values: publication PMC6133161, “Thiazoles with cyclopropyl fragment as antifungal, anticonvulsant, and anti-Toxoplasma gondii agents: synthesis, toxicity evaluation, and molecular docking study” (Medicinal Chemistry Research, 2018).
